According to patent publication EP2763666B1 (priority 2011, dated 2013):
Read-outs that look alike come from different tables or passages of the source.

Tests used:
[1] = tested on: L. infantum infected dogs; assay type: in vivo; details: for Antibody titre: mean ± standard deviation
[2] = tested on: L. infantum infected dogs; assay type: in vivo; details: for RT-PCR on lymph node FNA: mean ± standard deviation
[3] = tested on: L. infantum infected dogs; assay type: in vivo; details: mean ± standard deviation
[4] = tested on: L. infantum infected dogs; assay type: in vivo; details: for A/G ratio / Serum albumin / Serum γ-globulin: mean ± standard deviation
[5] = tested on: L. infantum infected dogs; assay type: in vivo; details: mean ± standard deviation; remark: listed apart in the source
[6] = tested on: canine blood monocytes; assay type: in vivo, dogs; details: for Macrophages activity of killing: NO production / NBT reduction; for Macrophages activity of killing / Macrophages activity of binding: mean ± standard deviation; for Macrophages activity of binding: direct count of macrophages containing yeast cells
[7] = tested on: generalized demodicosis; experiment: Canine generalized demodicosis: IP versus milbemycin oxime; assay type: in vivo, dogs; details: fraction of cases
Protocol: Twelve dogs diagnosed with generalized demodicosis were treated, 6 with IP and 6 with milbemycin oxime. Cases diagnosed before two years of age were classified as juvenile-onset (58.3%, 7 dogs) and those diagnosed after two years of age as adult-onset (41.6%, 5 dogs). […] As previous mentioned, in six dogs cured with milbemycin oxime, the drug was used for 1-6 months (mean 2.3 months) at a dosage of 0.5-1.6 mg kg-1 body weight (mean 0.75 mg kg-1). No significant difference in dosage or treatment time was seen between juvenile and adult cases. Six dogs cured with IP were treated at the same manner indicated as reported in Example 1, and 6). In group of IP treated dogs, not differences were observed between young and adult treated animals. […] Cases with severe pododemodicosis had less chance of a cure (2/3 not cured) by using M-O protocol, but not with IP protocol (2/2 cured).
Dogs: dogs of every age, breed or sex with generalized demodicosis were used in this study. All dogs. […] Dogs developing the disease at less than two years of age were classified as juvenile-onset generalized demodicosis. Dogs that developed disease at two years of age or older were classified as adult onset generalized demodicosis. […]
Follow-up: follow-up visits were scheduled once a month for clinical evaluation and skin scrapings. The scraping sites were recorded and sampled at each subsequent examination. […]

[8] = T0 (beginning of therapy), baseline

Compound: Cc1ccc(-c2cc(C(F)(F)F)nn2-c2ccc(S(N)(=O)=O)cc2)cc1 [Celecoxib]
- side effects: animals with chronic bleeding (5 control parrots treated only with anti-COX2): two
- death with acute hemorrhagic event in the proventriculus, time from initiation of therapy (adult female African Grey parrot): ≤ 7 days
- negativization of crop biopsies (histology at T1 (six months) and T2 (one year of therapy)): 20%
- renal side effect leading to discontinuation (in vivo): inducing renal failure
- parrots survived (of 5 parrots, 1.5 year later): 1
- parrots died (of 5 parrots, during four months after the end of the therapy): 4

Compound: Meglumine antimoniate [Control group]
- trend of antibody (Ab titre) ([1]; Figure 2A legend, after the first six months of the trial): antibody title increase
- Antibody titre [1, 8]: 908 ± 1240
- Antibody titre ([1]; T1 (2 months)): 779 ± 1031
- Antibody titre ([1]; T2 (6 months)): 378 ± 321
- Antibody titre ([1]; T3 (12 months)): 493 ± 678
- PCR results, levels of DNA copies (trend) ([2]; Figure 2B legend, after two months of treatment up to one year): progressive increase of parasite DNA in lymphnodes and bone-marrow
- RT-PCR on lymph node FNA [2, 8]: 613.228 ± 747.653 Parasites/ml
- RT-PCR on lymph node FNA ([2]; T1 (2 months)): 287.482 ± 434.807 Parasites/ml
- RT-PCR on lymph node FNA ([2]; T2 (6 months)): 210.103 ± 364.909 Parasites/ml
- RT-PCR on lymph node FNA ([2]; T3 (12 months)): 340.367 ± 511.898 Parasites/ml
- Clinical scores [3, 8]: 4,4 ±2
- Clinical scores ([3]; T1 (2 months)): 2,5 ± 1,9
- Clinical scores ([3]; T2 (6 months)): 2,7 ±2
- Clinical scores ([3]; T3 (12 months)): 2,8 ± 2,2
- electrophoresis: gamma-globulins levels in sera (trend) ([4]; Figure 2D legend): after a first period of decreasing trend, the gamma globulins trend increase
- A/G ratio [4, 8]: 0,48 ± 0,23
- Serum albumin [4, 8]: 30,08 ± 9,63%
- Serum γ-globulin [4, 8]: 30,67 ± 7,91%
- A/G ratio ([4]; T1 (2 months)): 0,55 ± 0,23
- Serum albumin ([4]; T1 (2 months)): 34,03 ± 9,5%
- Serum γ-globulin ([4]; T1 (2 months)): 23,15 ± 7,46%
- A/G ratio ([4]; T2 (6 months)): 0,57 ± 0,23
- Serum albumin ([4]; T2 (6 months)): 35,22 ± 9,35%
- Serum γ-globulin ([4]; T2 (6 months)): 21,56 ± 5,86%
- A/G ratio ([4]; T3 (12 months)): 0,57 ± 0,22
- Serum albumin ([4]; T3 (12 months)): 35,26 ±9,61%
- Serum γ-globulin ([4]; T3 (12 months)): 22,74 ± 7,93%
- CD3^+/CD21^+ ratio [5, 8]: 42,62 ± 21,24
- CD4^+/CD8^+ ratio [5, 8]: 1,02 ± 0,48
- CD3^+/CD21^+ ratio ([5]; T1 (2 months)): 38,13 ± 20,56
- CD4^+/CD8^+ ratio ([5]; T1 (2 months)): 1,04 ± 0,46
- CD3^+/CD21^+ ratio ([5]; T2 (6 months)): 39,85 ± 17,58
- CD4^+/CD8^+ ratio ([5]; T2 (6 months)): 1,02 ± 0,45
- CD3^+/CD21^+ ratio ([5]; T3 (12 months)): 38,64 ± 19,54
- CD4^+/CD8^+ ratio ([5]; T3 (12 months)): 1,31 ± 0,58
- Macrophages killing activity, levels of NO production / NBT reduction (trend) ([6]; Figure 4A legend): constantly low
- Macrophages activity of killing [6, 8]: 1,1 ± 0,1
- Macrophages activity of binding [6, 8]: 31,84 ± 12,9
- Macrophages activity of killing ([6]; T1 (2 months)): 1,2 ± 0,1
- Macrophages activity of binding ([6]; T1 (2 months)): 34,84 ± 14,2
- Macrophages activity of killing ([6]; T2 (6 months)): 1,1 ± 0,1
- Macrophages activity of binding ([6]; T2 (6 months)): 35,42 ± 13,68
- Macrophages activity of killing ([6]; T3 (12 months)): 1,1 ± 0,1
- Macrophages activity of binding ([6]; T3 (12 months)): 32,77 ± 12,78

Compound: milbemycin oxime [M-O]
- cases with severe pododemodicosis not cured [7]: 2/3
